From the supplement of paper PMC10883282
± gives the standard deviation of the averaged measurements.

Columns and labels:
Experiment in all cases: relative viability vs DMSO control (72 h) (fraction); higher = more viable cells
VA-ES-BJ = test system: VA-ES-BJ
In short: (§1)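 Sarcoma cell lines were grown in 384-well plates seeded toward 80–90% confluence and exposed 24 h later to serially diluted compound. After 72 h at 37 °C and 5% CO2, with 0.1% DMSO vehicle and a 5 µM positive control on the plates, ATPLite was read. Relative viability, given as percent growth averaged over up to triplicate wells, was rescaled so that 1 is full and 0 is none.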

SW1353 = test system: SW1353
In short: as §1

HT1080 = test system: HT1080
In short: as §1

RD = test system: RD
In short: as §1

SW684 = test system: SW684
In short: as §1

SK-ES-1 = test system: SK-ES-1
In short: as §1

Which relative viability (VA-ES-BJ; 0.00017 µM) does the source give for `CCCS(=O)(=O)N[C@H]1C[C@@H](N(C)c2ncnc3[nH]ccc23)C1` [Abrocitinib] here?
Its relative viability is 1.02 ± 0.033.

What about the relative viability (VA-ES-BJ; 0.00051 µM) of the same compound?
The relative viability was 1.02 ± 0.07.

What about the relative viability (VA-ES-BJ; 0.00152 µM) of the same compound?
Its relative viability is 1 ± 0.038.

And the relative viability (VA-ES-BJ; 0.00457 µM)?
Its relative viability is 1.03 ± 0.02.

What about the relative viability (VA-ES-BJ; 0.01372 µM) of the same compound?
Its relative viability is 1.02 ± 0.057.

And the relative viability (VA-ES-BJ; 0.04115 µM)?
The relative viability was 1.05 ± 0.052.

What about the relative viability (VA-ES-BJ; 0.1235 µM) of the same compound?
The relative viability was 1.03 ± 0.038.

And the relative viability (VA-ES-BJ; 0.3704 µM)?
Its relative viability is 1.05 ± 0.063.

And the relative viability (VA-ES-BJ; 1.111 µM)?
The relative viability was 1.06 ± 0.051.

And the relative viability (VA-ES-BJ; 3.333 µM)?
Its relative viability is 1.03 ± 0.033.

What about the relative viability (VA-ES-BJ; 10 µM) of the same compound?
The relative viability was 1.01 ± 0.029.

What about the relative viability (SW1353; 0.00017 µM) of the same compound?
The relative viability was 0.96 ± 0.016.

What about the relative viability (SW1353; 0.00051 µM) of the same compound?
The relative viability was 0.966 ± 0.023.

And the relative viability (SW1353; 0.00152 µM)?
The relative viability was 0.929 ± 0.033.

And the relative viability (SW1353; 0.00457 µM)?
Its relative viability is 0.96 ± 0.016.

What about the relative viability (SW1353; 0.01372 µM) of the same compound?
The relative viability was 1 ± 0.055.

And the relative viability (SW1353; 0.04115 µM)?
The relative viability was 0.9632 ± 0.0078.

What about the relative viability (SW1353; 0.1235 µM) of the same compound?
The relative viability was 0.977 ± 0.03.

And the relative viability (SW1353; 0.3704 µM)?
The relative viability was 0.999 ± 0.031.

And the relative viability (SW1353; 1.111 µM)?
Its relative viability is 0.958 ± 0.052.

And the relative viability (SW1353; 3.333 µM)?
The relative viability was 0.991 ± 0.018.

What about the relative viability (SW1353; 10 µM) of the same compound?
The relative viability was 0.996 ± 0.01.

What about the relative viability (HT1080; 0.00017 µM) of the same compound?
Its relative viability is 1.026 ± 0.0073.

What about the relative viability (HT1080; 0.00051 µM) of the same compound?
Its relative viability is 1.02 ± 0.02.

What about the relative viability (HT1080; 0.00152 µM) of the same compound?
The relative viability was 1.046 ± 0.0076.

And the relative viability (HT1080; 0.00457 µM)?
The relative viability was 1.022 ± 0.0084.

What about the relative viability (HT1080; 0.01372 µM) of the same compound?
Its relative viability is 1.05 ± 0.019.

What about the relative viability (HT1080; 0.04115 µM) of the same compound?
The relative viability was 1.05 ± 0.011.

What about the relative viability (HT1080; 0.1235 µM) of the same compound?
Its relative viability is 1.026 ± 0.01.

And the relative viability (HT1080; 0.3704 µM)?
Its relative viability is 1.04 ± 0.034.

What about the relative viability (HT1080; 1.111 µM) of the same compound?
The relative viability was 1.021 ± 0.0061.

What about the relative viability (HT1080; 3.333 µM) of the same compound?
Its relative viability is 1.03 ± 0.028.

And the relative viability (HT1080; 10 µM)?
The relative viability was 1.05 ± 0.039.

What about the relative viability (RD; 0.00017 µM) of the same compound?
The relative viability was 1.06 ± 0.057.

And the relative viability (RD; 0.00051 µM)?
Its relative viability is 1.12 ± 0.028.

What about the relative viability (RD; 0.00152 µM) of the same compound?
The relative viability was 1.11 ± 0.058.

And the relative viability (RD; 0.00457 µM)?
The relative viability was 1.09 ± 0.078.

What about the relative viability (RD; 0.01372 µM) of the same compound?
The relative viability was 1.09 ± 0.074.

And the relative viability (RD; 0.04115 µM)?
The relative viability was 1.11 ± 0.061.

And the relative viability (RD; 0.1235 µM)?
The relative viability was 1.09 ± 0.07.

And the relative viability (RD; 0.3704 µM)?
Its relative viability is 1.08 ± 0.065.

And the relative viability (RD; 1.111 µM)?
Its relative viability is 1.15 ± 0.039.

What about the relative viability (RD; 3.333 µM) of the same compound?
Its relative viability is 1.1 ± 0.037.

And the relative viability (RD; 10 µM)?
The relative viability was 1.09 ± 0.022.

What about the relative viability (SW684; 0.00017 µM) of the same compound?
The relative viability was 1.11 ± 0.052.

What about the relative viability (SW684; 0.00051 µM) of the same compound?
Its relative viability is 1.12 ± 0.036.

What about the relative viability (SW684; 0.00152 µM) of the same compound?
Its relative viability is 1.12 ± 0.078.

And the relative viability (SW684; 0.00457 µM)?
Its relative viability is 1.15 ± 0.066.

What about the relative viability (SW684; 0.01372 µM) of the same compound?
Its relative viability is 1.12 ± 0.036.

What about the relative viability (SW684; 0.04115 µM) of the same compound?
The relative viability was 1.13 ± 0.03.

And the relative viability (SW684; 0.1235 µM)?
The relative viability was 1.14 ± 0.054.

And the relative viability (SW684; 0.3704 µM)?
The relative viability was 1.16 ± 0.075.

And the relative viability (SW684; 1.111 µM)?
The relative viability was 1.11 ± 0.039.

And the relative viability (SW684; 3.333 µM)?
The relative viability was 1.09 ± 0.056.

And the relative viability (SW684; 10 µM)?
Its relative viability is 1.08 ± 0.066.

And the relative viability (SK-ES-1; 0.00017 µM)?
The relative viability was 1.03 ± 0.06.

What about the relative viability (SK-ES-1; 0.00051 µM) of the same compound?
Its relative viability is 1.06 ± 0.012.

What about the relative viability (SK-ES-1; 0.00152 µM) of the same compound?
The relative viability was 1.04 ± 0.024.

And the relative viability (SK-ES-1; 0.00457 µM)?
The relative viability was 1.03 ± 0.025.

And the relative viability (SK-ES-1; 0.01372 µM)?
The relative viability was 1.03 ± 0.03.

What about the relative viability (SK-ES-1; 0.04115 µM) of the same compound?
The relative viability was 1.02 ± 0.041.

And the relative viability (SK-ES-1; 0.1235 µM)?
Its relative viability is 1.03 ± 0.019.

And the relative viability (SK-ES-1; 0.3704 µM)?
Its relative viability is 1.03 ± 0.014.

And the relative viability (SK-ES-1; 1.111 µM)?
The relative viability was 1.02 ± 0.015.

What about the relative viability (SK-ES-1; 3.333 µM) of the same compound?
The relative viability was 1.03 ± 0.043.

And the relative viability (SK-ES-1; 10 µM)?
The relative viability was 1 ± 0.042.
